Source: patent publication US20240293493A1, “COMPOSITION FOR ALLEVIATING, TREATING, OR PREVENTING MUSCULAR DISEASES, OR IMPROVING MUSCULAR FUNCTIONS, CONTAINING KOREAN MINT EXTRACT OR TILIANIN AS ACTIVE INGREDIENT” (AAT COSTECH CO., LTD., priority 2020, published 2024)

Assays:
[1] = tested on: muscle atrophy-induced mice; test: Muscular strength in mice with skin-stapler immobilization muscle atrophy; format: in vivo, mice (C57BL/6J); conditions: tilianin 20 mg/kg orally every day, compared with muscle atrophy group
Procedure: (§1) 7-week-old male mice (C57BL/6J; DBL, Korea) were purchased as experimental animals. The breeding environment was maintained at a temperature of 23±2° C. and a relative humidity of 55±10%. Before the start of the experiment, a total of 20 mice were randomly divided into groups of 5 mice each. After a week of acclimation, anesthesia was induced by intraperitoneal injection of 325 mg/kg tribromoethanol (Sigma-Aldrich). After the anesthesia, the right hindlimb gastrocnemius muscle and the right sole of the mice in a muscle atrophy group and a sample administration group were stapled using a skin stapler (Unidus, Chungcheongbuk-do, Korea) to damage the muscle and keep the right hindlimb from moving. This state was maintained for a week. […]
After the end of the oral administration period, the muscular strength of the mice was measured using a muscular strength meter (Panlab, Barcelona, Spain). […]
(§2) After inducing muscle atrophy in the same manner as in Example 12-1, tilianin was orally administered every day at a concentration of 20 mg/kg. Then, muscular strength and muscle weight were measured in the same manner as in Example 12-2 and Example 12-3.

[2] = tested on: MuRF1; test: MuRF1 mRNA expression in TNF-α-treated L6 myotubes (RT-PCR); format: cell-based; conditions: TNF-α treatment, 20 µM or 40 µM tilianin
Procedure: (§3) L6 myoblasts (ATCC), which are muscle cells, were added to a 6-well plate with DMEM (Hyclone) containing 10% FBS (Hyclone) at 1×10^5 cells/mL. When the cell density reached about 80-85%, the medium remaining in the well was removed and differentiation into myotubes was induced by treating the cells with DMEM (Hyclone) containing 2% HS (Hyclone). The differentiation was performed for a total of 6 days while replacing the medium with a fresh one every 2 days. After the differentiation, […], which was dissolved in DMEM (Hyclone) containing 50 ng/ml tumor necrosis factor alpha (TNF-α; PeproTech, Rocky Hills, NJ, USA). 12 hours later, total RNA was isolated using a TRIzol reagent (Takara, Otsu, Japan). The isolated total RNA was quantified using NanoDrop 1000 (Thermo Fisher Scientific Inc., Waltham, MA, USA). cDNA was synthesized from 16 μL of the quantified RNAs using a reverse transcriptase premix (ELPIS-Biotech) and a PCR machine (Gene Amp PCR System 2700; Applied Biosystems, Foster City, CA, USA) under the condition of 42° C. for 55 minutes and 70° C. for 15 minutes. PCR was performed by repeating 30 cycles of 95° C. for 30 seconds, 60° C. for 1 minute and 72° C. for 1 minute using 1 μL of cDNA from 16 μL of the produced cDNA, specific primers described below (Bioneer, Daejeon, Korea) and a PCR premix (ELPIS-Biotech). […]

[3] = tested on: muscle atrophy-induced mice; test: Tibialis anterior muscle weight in muscle atrophy-induced mice; format: in vivo, mice (C57BL/6J); conditions: tilianin 20 mg/kg orally every day, compared with muscle atrophy group
Procedure: as §1, §2

[4] = tested on: atrogin-1; test: atrogin-1 mRNA expression in TNF-α-treated L6 myotubes (RT-PCR); format: cell-based; conditions: TNF-α treatment, 20 µM or 40 µM tilianin
Procedure: as §3

[5] = tested on: mTOR; test: mTOR activity in L6 myotubes by mTOR sandwich ELISA kit; format: cell-based; conditions: 20 μM or 40 μM tilianin, vs control group
Procedure: It is known that the activation of the mTOR protein by phosphorylation can induce muscle protein synthesis in muscle cells by the PI3K/Akt signaling pathway and can activate proteins involved in increase of muscle mass. Therefore, in order to investigate the activity of inducing muscle formation of Korean mint, the activity of mTOR was investigated using a mTOR sandwich ELISA kit (Cell Signaling Technology, Beverly, MA, USA).
L6 myoblasts (ATCC; Manassas, VA, USA) were seeded on a 6-well plate at 1×10^5 cells/well with Dulbecco's modified Eagle's medium (DMEM; Hyclone) containing 10% fetal bovine serum (FBS; Hyclone, Logan, UT, USA) and then cultured for 24 hours. […]
(Hyclone) containing 2% horse serum (HS; Hyclone). […] Proteins in the obtained cell lysate were quantified at a concentration of 1 mg/mL by Bradford assay (Bio-Rad Laboratories Inc., Hercules, CA, USA). […] 2 minutes later, the mTOR level in the myotubes treated with the extract of Korean mint leaf was measured by measuring absorbance at 450 nm. […] The difference between groups was analyzed through Duncan's multiple range test by one-way analysis of variance using the SPSS25.0 statistical package (SPSS Inc., Chicago, IL, USA). […]
mTOR activity was measured in the same manner as in Example 3 except that the extracts of the aerial part of Korean mint of Example 1-2 to Example 1-8 were treated at 80 μg/mL. […]

COc1ccc(-c2cc(=O)c3c(O)cc(O[C@@H]4O[C@H](CO)[C@@H](O)[C@H](O)[C@H]4O)cc3o2)cc1 [tilianin]
increase of muscular strength [1]: 30.3%
mRNA of MuRF1 (FIG. 4) [2]: decreased
increase of muscle weight [3]: 15.2%
mRNA of atrogin-1 (FIG. 4) [4]: decreased
mTOR activity (FIG. 3) [5]: significantly increased
